Measured values published in patent US20260347373A1, “HETEROCYCLIC COMPOUNDS, COMPOSITIONS THEREOF, AND METHODS OF TREATMENT THEREWITH” (BeOne Medicines I GmbH, priority 2023, published 2026).

Columns and labels:
[1] = molecular target: WT KRAS (Homo sapiens, UniProt P01116); assay: KRAS WT Probe Displacement Assay (TR-FRET, GDP-loaded); type: binding; conditions: KRAS WT, read-out: KRAS^WT Probe Displacement Assay IC50
Excerpt: (§1) The synthetic routes of probe 1 and 2, which have been disclosed in PCT/CN2022/070676, are hereby incorporated herein.

[2] = molecular target: KRAS G12D (Homo sapiens, UniProt P01116, G12D); assay: KRAS G12D Probe Displacement Assay (TR-FRET, GDP-loaded); type: binding; conditions: KRAS G12D, read-out: KRAS^G12D Probe Displacement Assay IC50
Excerpt: as §1

KRAS G12D, sequence (P01116 1-188 isoform P01116-2 G12D): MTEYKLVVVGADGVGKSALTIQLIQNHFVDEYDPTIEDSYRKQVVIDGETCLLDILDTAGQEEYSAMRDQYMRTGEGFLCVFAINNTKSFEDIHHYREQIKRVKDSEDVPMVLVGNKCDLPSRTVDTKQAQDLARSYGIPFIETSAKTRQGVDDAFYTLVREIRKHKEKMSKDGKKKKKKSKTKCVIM
WT KRAS, sequence (P01116 1-188 isoform P01116-2): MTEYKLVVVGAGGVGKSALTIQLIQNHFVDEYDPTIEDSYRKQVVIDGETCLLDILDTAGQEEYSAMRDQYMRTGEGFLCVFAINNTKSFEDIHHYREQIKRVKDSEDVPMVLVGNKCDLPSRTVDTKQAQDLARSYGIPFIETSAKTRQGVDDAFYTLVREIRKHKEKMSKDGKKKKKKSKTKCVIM

Compound	IC50 [1]	IC50 [2]
Cc1cc(N)cc(-c2nc3c4c(nc(OCC5(CN6CC7(C6)CC(F)(F)C7)CC5)nc4c2F)N2C[C@H]4CC[C@H](N4)[C@H]2CCO3)c1C(F)(F)F [Example 176, 3-((6aR,7S,10R)-13-((1-((6,6-difluoro-2-azaspiro[3.3]heptan-2-yl)methyl)cyclopropyl)methoxy)-1-fluoro-5,6,6a,7,8,9,10,11-octahydro-4-oxa-3,11a,12,14,15-pentaaza[7,10]methanocyclohepta[4,5]cycloocta[1,2,3-de]naphthalen-2-yl)-5-methyl-4-(trifluoromethyl)aniline]	3 to 1000 nM	< 0.3 nM
Cc1cc(N)cc(-c2nc3c4c(nc(OCC5(CN6CCn7cncc7C6)CC5)nc4c2F)N2C[C@H]4CC[C@H](N4)[C@H]2CCO3)c1C(F)(F)F [Example 108, 3-((6aR,7S,10R)-13-((1-((5,6-dihydroimidazo [1,5-a]pyrazin-7(8H)-yl)methyl)cyclopropyl)methoxy)-1-fluoro-5,6,6a,7,8,9, 10,11-octahydro-4-oxa-3,11a,12,14,15-pentaaza-7,10-methanocyclohepta [4,5]cycloocta [1,2,3-de]naphthalen-2-yl)-5-methyl-4-(trifluoromethyl)aniline]	3 to 1000 nM	0.3 to 3 nM
Cc1cc(N)cc(-c2nc3c4c(nc(OC[C@H]5COC[C@H]5N(C)C)nc4c2F)N2C[C@H]4CC[C@H](N4)[C@H]2CCO3)c1C(F)(F)F [Example 41, (3S,4R)-4-((((6aR,7S,10R)-2-(5-amino-3-methyl-2-(trifluoromethyl)phenyl)-1-fluoro-5,6,6a,7,8,9,10,11-octahydro-4-oxa-3,11a,12,14,15-pentaaza-7,10-methanocyclohepta[4,5]cycloocta [1,2,3-de]naphthalen-13-yl)oxy)methyl)-N,N-dimethyltetrahydrofuran-3-amine]	3 to 1000 nM	0.3 to 3 nM
Cc1cc(N)cc(-c2nc3c4c(nc(OCC5(CN6CCC7(COC7)C6)CC5)nc4c2F)N2C[C@H]4CC[C@H](N4)[C@H]2CCO3)c1C(F)(F)F [Example 189, 3-((6aR,7S,10R)-13-((1-((2-oxa-6-azaspiro[3.4]octan-6-yl)methyl)cyclopropyl)methoxy)-1-fluoro-5,6,6a,7,8,9,10,11-octahydro-4-oxa-3,11a,12,14,15-pentaaza[7,10]methanocyclohepta[4,5]cycloocta[1,2,3-de]naphthalen-2-yl)-5-methyl-4-(trifluoromethyl)aniline]	3 to 1000 nM	< 0.3 nM
COC[C@H]1[C@@H]2C[C@@H]2CN1CC1(COc2nc3c4c(nc(-c5cc(N)cc(C)c5C(F)(F)F)c(F)c4n2)OCC[C@@H]2[C@@H]4CC[C@H](CN32)N4)CC1 [Example 181, 3-((6aR,7S,10R)-1-fluoro-13-((1-(((1R,2R,5S)-2-(methoxymethyl)-3-azabicyclo[3.1.0]hexan-3-yl)methyl)cyclopropyl)methoxy)-5,6,6a,7,8,9,10,11-octahydro-4-oxa-3,11a,12,14,15-pentaaza-7,10-methanocyclohepta[4,5]cycloocta[1,2,3-de]naphthalen-2-yl)-5-methyl-4-(trifluoromethyl)aniline]	3 to 1000 nM	< 0.3 nM
Cc1cc(N)cc(-c2nc3c4c(nc(O[C@@H](C)[C@@H]5CCCN5CC5CC5)nc4c2F)N2C[C@H]4CC[C@H](N4)[C@H]2CCO3)c1C(F)(F)F [Example 230, 3-((6aR,7S,10R)-13-((S)-1-((S)-1-(cyclopropylmethyl)pyrrolidin-2-yl)ethoxy)-1-fluoro-5,6,6a,7,8,9,10,11-octahydro-4-oxa-3,11a,12,14,15-pentaaza-7,10-methanocyclohepta[4,5]cycloocta[1,2,3-de]naphthalen-2-yl)-5-methyl-4-(trifluoromethyl)aniline]	3 to 1000 nM	< 0.3 nM
COC1CN(CC2(COc3nc4c5c(nc(-c6cc(N)cc(C)c6C(F)(F)F)c(F)c5n3)OCC[C@@H]3[C@@H]5CC[C@H](CN43)N5)CC2)CC1F (single isomer, unassigned) [Example 186]	3 to 1000 nM	< 0.3 nM
Cc1cc(N)cc(-c2nc3c4c(nc(OCC5(CN6CCC6)CC5(F)F)nc4c2F)N2C[C@H]4CC[C@H](N4)[C@H]2CCO3)c1C(F)(F)F (single isomer, unassigned) [Example 57]	3 to 1000 nM	0.3 to 3 nM
Cc1cc(N)cc(-c2nc3c4c(nc(OCC5(CN6CC7CC7C6)CC5)nc4c2F)N2C[C@H]4CC[C@H](N4)[C@H]2CCO3)c1C(F)(F)F (stereo partly drawn) [Example 71, 3-((6aR,7S,10R)-13-((1-((3-azabicyclo[3.1.0]hexan-3-yl)methyl)cyclopropyl)methoxy)-1-fluoro-5,6,6a,7,8,9,10,11-octahydro-4-oxa-3,11a,12,14,15-pentaaza-7,10-methanocyclohepta[4,5]cycloocta [1,2,3-de]naphthalen-2-yl)-5-methyl-4-(trifluoromethyl)aniline]	3 to 1000 nM	< 0.3 nM
Cc1cc(N)cc(-c2nc3c4c(nc(OCC5(CN6CCC6)CC5)nc4c2F)N2C[C@H]4CC[C@H](N4)[C@H]2CCO3)c1C(F)(F)F [Example 78, 3-((6aR,7S,10R)-13-((1-(azetidin-1-ylmethyl)cyclopropyl)methoxy)-1-fluoro-5,6,6a,7,8,9,10,11-octahydro-4-oxa-3, 11a,12,14,15-pentaaza-7,10-methanocyclohepta [4,5]cycloocta [1,2,3-de]naphthalen-2-yl)-5-methyl-4-(trifluoromethyl)aniline]	3 to 1000 nM	0.3 to 3 nM
Cc1cc(N)cc(-c2nc3c4c(nc(OCC5(CN6CCC(C#N)CC6)CC5)nc4c2F)N2C[C@H]4CC[C@H](N4)[C@H]2CCO3)c1C(F)(F)F [Example 165, 1-((1-((((6aR,7S,10R)-2-(5-amino-3-methyl-2-(trifluoromethyl)phenyl)-1-fluoro-5,6,6a,7,8,9,10,11-octahydro-4-oxa-3,11a,12,14,15-pentaaza-7,10-methanocyclohepta[4,5]cycloocta[1,2,3-de]naphthalen-13-yl)oxy)methyl)cyclopropyl)methyl)piperidine-4-carbonitrile]	0.3 to 3 nM	< 0.3 nM
Cc1cc(N)cc(-c2nc3c4c(nc(OCC5(CN6CCC(=CF)CC6)CC5)nc4c2F)N2C[C@H]4CC[C@H](N4)[C@H]2CCO3)c1C(F)(F)F [Example 154, 3-((6aR,7S,10R)-1-fluoro-13-((1-((4-(fluoromethylene)piperidin-1-yl)methyl)cyclopropyl)methoxy)-5,6,6a,7,8,9,10,11-octahydro-4-oxa-3,11a,12,14,15-pentaaza-7,10-methanocyclohepta[4,5]cycloocta [1,2,3-de]naphthalen-2-yl)-5-methyl-4-(trifluoromethyl)aniline]	0.3 to 3 nM	< 0.3 nM
Cc1cc(N)cc(-c2nc3c4c(nc(OCC5(CN6CC7CC7(CO)C6)CC5)nc4c2F)N2C[C@H]4CC[C@H](N4)[C@H]2CCO3)c1C(F)(F)F (mixture of isomers) [Example 99, (3-((1-((((6aR,7S,10R)-2-(5-amino-3-methyl-2-(trifluoromethyl)phenyl)-1-fluoro-5,6,6a,7,8,9,10,11-octahydro-4-oxa-3,11a,12,14,15-pentaaza-7,10-methanocyclohepta [4,5]cycloocta [1,2,3-de]naphthalen-13-yl)oxy)methyl)cyclopropyl)methyl)-3-azabicyclo[3.1.0]hexan-1-yl)methanol]	0.3 to 3 nM	< 0.3 nM
Cc1cc(N)cc(-c2nc3c4c(nc(OC[C@]56C[C@H](F)CN5C[C@H](F)C6)nc4c2F)N2C[C@H]4CC[C@H](N4)[C@H]2CCO3)c1C(F)(F)F [Example 35]	3 to 1000 nM	0.3 to 3 nM
Cc1cc(N)cc(-c2nc3c4c(nc(OCC5(C)CC(F)CN(C6CCOCC6)C5)nc4c2F)N2C[C@H]4CC[C@H](N4)[C@H]2CCO3)c1C(F)(F)F (single isomer, unassigned) [Example 234]	3 to 1000 nM	0.3 to 3 nM
[2H]C([2H])([2H])N1CCC(C(F)F)C(C)(C([2H])([2H])Oc2nc3c4c(nc(-c5cc(N)cc(C)c5C(F)(F)F)c(F)c4n2)OCC[C@@H]2[C@@H]4CC[C@H](CN32)N4)C1 (single isomer, unassigned) [Example 240]	3 to 1000 nM	0.3 to 3 nM
Cc1cc(N)cc(-c2nc3c4c(nc(OCC5(CN6CC=CC6C6(O)CC6)CC5)nc4c2F)N2C[C@H]4CC[C@H](N4)[C@H]2CCO3)c1C(F)(F)F (stereo partly drawn) [Example 162, 1-(1-((1-((((6aR,7S,10R)-2-(5-amino-3-methyl-2-(trifluoromethyl)phenyl)-1-fluoro-5,6,6a,7,8,9,10,11-octahydro-4-oxa-3,11a,12,14,15-pentaaza-7,10-methanocyclohepta[4,5]cycloocta[1,2,3-de]naphthalen-13-yl)oxy)methyl)cyclopropyl)methyl)-2,5-dihydro-1H-pyrrol-2-yl)cyclopropan-1-ol]	3 to 1000 nM	< 0.3 nM
Cc1cc(N)cc(-c2nc3c4c(nc(OCC5(C)CN(C)CCC5C(F)F)nc4c2F)N2C[C@H]4CC[C@H](N4)[C@H]2CCO3)c1C(F)(F)F (single isomer, unassigned) [Example 245]	0.3 to 3 nM	< 0.3 nM
Cc1cc(N)cc(-c2nc3c4c(nc(OCC5(CN6[C@@H]7CC[C@H]6COC7)CC5)nc4c2F)N2C[C@H]4CC[C@H](N4)[C@H]2CCO3)c1C(F)(F)F [Example 107, 3-((6aR,7S,10R)-13-((1-(((1R,5S)-3-oxa-8-azabicyclo [3.2.1]octan-8-yl)methyl)cyclopropyl)methoxy)-1-fluoro-5,6,6a,7,8,9,10,11-octahydro-4-oxa-3,11a,12,14,15-pentaaza-7,10-methanocyclohepta [4,5]cycloocta [1,2,3-de]naphthalen-2-yl)-5-methyl-4-(trifluoromethyl)aniline]	3 to 1000 nM	< 0.3 nM
Cc1cc(N)cc(-c2nc3c4c(nc(OCC5(C)CN(C)CC/C5=C\F)nc4c2F)N2C[C@H]4CC[C@H](N4)[C@H]2CCO3)c1C(F)(F)F (single isomer, unassigned) [Example 236]	3 to 1000 nM	< 0.3 nM
